Experimental data from patent US20260022118A1, “HETEROCYCLIC COMPOUNDS AS NRAS INHIBITORS” (Board of Regents, The University of Texas System, priority 2023, published 2026).

Assays:
[1] = test system: THP-1 cells expressing G12D (NRAS G12D); test: Inhibition of NRAS G12D-mediated phosphorylation of ERK (AlphaLISA p-ERK1/2) in THP-1 cells; assay type: cell-based; settings: Homo sapiens, THP-1, 2 h, 2 hours incubation, HBSS with 0% or 10% FBS, p-ERK1/2 (Thr202/Tyr204) AlphaLISA, read-out: pERK THP-1 IC50
Experimental: Inhibition of NRAS G12D-Mediated Phosphorylation of ERK by Exemplary Compounds of Formulas I, II, and III.
This Example illustrates that exemplary compounds and salts thereof described herein inhibit the phosphorylation of ERK downstream of NRAS G12D.
THP-1 cells (ATCC TIB-202) expressing G12D were maintained in RPMI-1640 medium supplemented with 10% fetal bovine serum (FBS), 0.05 mM 2-mercaptoethanol, and penicillin/streptomycin. Cells (20,000/well) were seeded onto a 384 well plate in 20 μL of HBSS supplemented with 0% or 10% FBS. Cells were incubated in the absence or presence of various concentrations of test compound (final 1% DMSO) for 2 hours. p-ERK expression was assessed using the AlphaLISA SureFire Ultra p-ERK1/2 (Thr202/Tyr204) (PerkinElmer®, ALSU-PERK-A10K) following manufacturer recommendation. Plates were read on a PerkinElmer® Envision Multimode plate reader. Dose-response curves were analyzed using IC50 regression curve fitting (GeneData Screener). Curves were plotted as a percent control and normalized by high controls without inhibitor (100%), and low controls (0%) containing 1 μM of trametinib, a potent MEK inhibitor.

NRAS G12D C118S = NRAS G12D C118S (Homo sapiens (Human), UniProt P01111, C118S/G12D); test: NRas G12D Surface Plasmon Resonance (SPR) binding assay; settings: Avi-tagged biotinylated NRAS G12D C118S on streptavidin chip, 25° C., 1:1 kinetic or steady-state fit
Experimental: NRas G12D Surface Plasmon Resonance (SPR) Binding Assay
This Example illustrates that exemplary compounds and salts thereof described herein bind to NRAS G12D as measured by surface plasmon resonance (SPR).
Two liters of 1.03× running buffer (1.03×HBS-P+pH 7.4, containing 0.0103 M HEPES, 0.1545 M NaCl, 0.0515% v/v Surfactant P20 (Cytiva®, BR100671); 5.15 mM MgCl2 (Invitrogen, AM9530G); 0.515 mM TCEP, pH 8.0 (GoldBio®, TCEP25)) was prepared and filter sterilized using a 0.22 μm filter. A 1-L volumetric flask was filled partway with this buffer. A 30-mL volumetric flask was used to measure 30 mL of 100% DMSO (Sigma Aldrich®, 41639-100ML) which was added to the 1-L flask. The solution in the 1-L flask was brought up to 1 L with 1.03× buffer, resulting in a 1.0× assay running buffer containing 1.0×HBS-P+, 5 mM MgCl2, […], and 3% DMSO. Remaining 1.03× buffer was used for preparation of samples and immobilization running buffer.
Samples were prepared in a standard conical-bottomed 384-well microplate by adding 2 μL 10 mM DMSO cpd stock to each well, followed by 8 μL DMSO. A control compound was selected based off of its relatively “fast” kinetics that could be fitted by 1:1 kinetic fitting, as well as by steady-state fitting. Control wells for periodic injection to assess protein activity throughout the assay were also assembled, by diluting 10 mM compound 1:30 in DMSO, then adding 20 μL to the appropriate wells, such that the final concentration of compound would be 10 μM, and the final concentration of DMSO would be 3%. A Biomek™ FXP Laboratory Automation Workstation was used to stamp 20 μL DMSO into all sample wells—minus the control wells—according to the plate map, and then serially dilute 1:3 by mixing and aspirating 10 μL, delivering into the 20 μL of DMSO in the next well, resulting in 10-point serial dilution curves. A Biotek™ Multiflo EL406 Washer Dispenser was used to deliver 80 μL of 1.03× buffer to the compound plate. The plate was mixed 10× by FX, then a final dilution was performed by stamping 18 μL from the compound plate into a 384-well deep-well plate that had also been previously filled with 102 μL 1.03× buffer via the Multiflo. The solution in the deep-well plate was mixed 10× by FX, then sealed with a 384-well microplate foil from Cytiva® (Cytiva® BR100577) and placed on an orbital shaker for 30 minutes at 1000 RPM to ensure complete mixing of the DMSO solution in the buffer. A solvent correction curve was also prepared by making a 4% DMSO solution in 1.03× buffer and diluting in 1.03× buffer such that there were eight solutions of decreasing DMSO concentrations resulting in a high DMSO concentration of 4% and a low concentration of 2% DMSO.
Immobilization running buffer was prepared in a 200-mL volume by diluting 1.03× running buffer prepared above to 1.0×. A Cytiva® Streptavidin chip (Cytiva®, 29104992) was docked into a Biacore™ S200 instrument, and the instrument was then primed three times into the immobilization running buffer. A protein stock of Avi-tagged NRAS G12D C118S was prepared in-house and biotinylated using the Bulk BirA: BirA biotin-protein ligase bulk reaction kit from Avidity (Avidity®, Bulk BirA). Upon completion of the biotinylation reaction, Amicon® ultra 0.5-mL Centrifugal Filters with a MWCO of 3 k Da (Millipore® UFC500396) were used to reduce the free biotin concentration below 0.1 μM in the protein sample over the course of eight desalting cycles, according to the manufacturer's protocol. Resulting protein concentration was not measured directly as an accurate protein concentration is not required for immobilizing protein on the chip surface; however, a theoretical yield of ≤1.5 mg/mL was estimated based off of retained volumes during the desalting process. Reagents for immobilization were prepared as instructed in the Biacore™ 5200 Control Software Immobilization Wizard, including solutions of 1 M NaCl in 50 mM NaOH, and 1 M NaCl in 50 mM NaOH and 50% isopropyl alcohol. […]

Chain of NRAS G12D C118S (P01111 whole entry G12D/C118S): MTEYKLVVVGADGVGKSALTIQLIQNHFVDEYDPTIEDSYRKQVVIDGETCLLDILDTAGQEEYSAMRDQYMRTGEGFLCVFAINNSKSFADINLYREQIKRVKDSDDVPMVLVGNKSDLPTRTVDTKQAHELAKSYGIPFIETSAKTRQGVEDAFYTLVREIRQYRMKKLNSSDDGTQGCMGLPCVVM

Structure (SMILES)	IC50 [1] [nM]	Kd (NRAS G12D C118S) [nM]
C#Cc1c(F)ccc2cc(O)cc(-c3nc(OC4CCCC4)c4c([C@H]5[C@@H]6CNC[C@@H]65)nn(C5CC5)c4c3F)c12 [Example 65, 4-(3-((1R,5S,6r)-3-azabicyclo[3.1.0]hexan-6-yl)-4-(cyclopentyloxy)-1-cyclopropyl-7-fluoro-1H-pyrazolo[4,3-c]pyridin-6-yl)-5-ethynyl-6-fluoronaphthalen-2-ol]	1060	125
C#Cc1c(F)ccc2cc(O)cc(-c3ncc4c([C@H]5[C@@H]6CNC(CO)[C@@H]65)nn(C)c4c3F)c12 (stereo partly drawn) [Example 97, 5-ethynyl-6-fluoro-4-(7-fluoro-3-((1S,5R,6S)-2-(hydroxymethyl)-3-azabicyclo[3.1.0]hexan-6-yl)-1-methyl-1H-pyrazolo[4,3-c]pyridin-6-yl)naphthalen-2-ol]	2220	190
C#Cc1c(F)ccc2cc(O)cc(-c3ncc4c([C@H]5[C@@H]6CNC[C@@H]65)c(C#N)n(C)c4c3F)c12 [Example 58, 3-((1R,5S,6s)-3-azabicyclo[3.1.0]hexan-6-yl)-6-(8-ethynyl-7-fluoro-3-hydroxynaphthalen-1-yl)-7-fluoro-1-methyl-1H-pyrrolo[3,2-c]pyridine-2-carbonitrile]	4800	300
C#Cc1c(F)ccc2cc(O)cc(-c3ncc4c(N5CC6CC5CN6)nn(C)c4c3F)c12 (stereo not drawn) [Example 28, 4-(3-(2,5-diazabicyclo[2.2.1]heptan-2-yl)-7-fluoro-1-methyl-1H-pyrazolo[4,3-c]pyridin-6-yl)-5-ethynyl-6-fluoronaphthalen-2-ol]	11900	1100
C#Cc1c(F)ccc2cc(O)cc(-c3nc(OC4CNC4)c4c([C@H]5[C@@H]6CNC[C@@H]65)nn(C5CC5)c4c3F)c12 [Example 69, 4-(4-(azetidin-3-yloxy)-3-((1R,5S,6r)-3-azabicyclo[3.1.0]hexan-6-yl)-1-cyclopropyl-7-fluoro-1H-pyrazolo[4,3-c]pyridin-6-yl)-5-ethynyl-6-fluoronaphthalen-2-ol]	> 10000	1790
C#Cc1c(F)ccc2cc(O)cc(-c3ncc4c(N5CC6CCC(C5)N6)nn(C)c4c3F)c12 [Example 13, 4-(3-(3,8-diazabicyclo[3.2.1]octan-3-yl)-7-fluoro-1-methyl-1H-pyrazolo[4,3-c]pyridin-6-yl)-5-ethynyl-6-fluoronaphthalen-2-ol]	6740	891
C#Cc1c(F)ccc2cc(O)cc(-c3nc(OC4CC4)c4c([C@H]5[C@@H]6CNC[C@@H]65)nn(C5CC5)c4c3F)c12 [Example 70, 4-(3-((1R,5S,6r)-3-azabicyclo[3.1.0]hexan-6-yl)-4-cyclopropoxy-1-cyclopropyl-7-fluoro-1H-pyrazolo[4,3-c]pyridin-6-yl)-5-ethynyl-6-fluoronaphthalen-2-ol]	169	33.3
C#Cc1c(F)ccc2cc(O)cc(-c3nc(OC(F)F)c4c([C@H]5[C@@H]6CNC[C@@H]65)nn(C5CC5)c4c3F)c12 [Example 66, 4-(3-((1R,5S,6r)-3-azabicyclo[3.1.0]hexan-6-yl)-1-cyclopropyl-4-(difluoromethoxy)-7-fluoro-1H-pyrazolo[4,3-c]pyridin-6-yl)-5-ethynyl-6-fluoronaphthalen-2-ol]	1190	114
C#Cc1c(F)ccc2cc(O)cc(-c3ncc4c(N5C[C@@H]6CC[C@H]5CN6)nn(C5CC5)c4c3F)c12 [Example 106, 4-(3-((1S,4S)-2,5-diazabicyclo[2.2.2]octan-2-yl)-1-cyclopropyl-7-fluoro-1H-pyrazolo[4,3-c]pyridin-6-yl)-5-ethynyl-6-fluoronaphthalen-2-ol]	163	9.39
C#CCn1nc([C@H]2[C@@H]3CNC[C@@H]32)c2cnc(-c3cc(O)cc4ccc(F)c(C#C)c34)c(F)c21 [Example 59, 4-(3-((1R,5S,6r)-3-azabicyclo[3.1.0]hexan-6-yl)-7-fluoro-1-(prop-2-yn-1-yl)-1H-pyrazolo[4,3-c]pyridin-6-yl)-5-ethynyl-6-fluoronaphthalen-2-ol]	3470	1110
C#Cc1c(F)ccc2cc(O)cc(-c3ncc4c([C@H]5[C@@H]6CNC[C@@H]65)cn(C5CC5)c4c3F)c12 [Example 5, 4-(3-((1R,5S,6s)-3-azabicyclo[3.1.0]hexan-6-yl)-1-cyclopropyl-7-fluoro-1H-pyrrolo[3,2-c]pyridin-6-yl)-5-ethynyl-6-fluoronaphthalen-2-ol]	269	10.1
C#Cc1c(F)ccc2cc(O)cc(-c3ncc4c(N5CC6CCC(C5)N6)nn(CC5CCOC5)c4c3F)c12 (stereo not drawn) [Example 15, 4-(3-(3,8-diazabicyclo[3.2.1]octan-3-yl)-7-fluoro-1-((tetrahydrofuran-3-yl)methyl)-1H-pyrazolo[4,3-c]pyridin-6-yl)-5-ethynyl-6-fluoronaphthalen-2-ol]	–	5970
C#Cc1c(F)ccc2cc(O)cc(-c3cc4c(cn3)c(N3CC5CCC(C3)N5)nn4CCC)c12 [Example 7, 4-(3-(3,8-diazabicyclo[3.2.1]octan-3-yl)-1-propyl-1H-pyrazolo[4,3-c]pyridin-6-yl)-5-ethynyl-6-fluoronaphthalen-2-ol]	–	4750
C#Cc1c(F)ccc2cc(O)cc(-c3ncc4c([C@H]5[C@@H]6CNC[C@@H]65)c(CO)n(C)c4c3F)c12 [Example 23, 4-(3-((1R,5S,6s)-3-azabicyclo[3.1.0]hexan-6-yl)-7-fluoro-2-(hydroxymethyl)-1-methyl-1H-pyrrolo[3,2-c]pyridin-6-yl)-5-ethynyl-6-fluoronaphthalen-2-ol]	–	13700
C#Cc1c(F)ccc2cc(O)cc(-c3cc4[nH]nc(N5CC6CCC(C5)N6)c4cn3)c12 [Example 18, 4-(3-(3,8-diazabicyclo[3.2.1]octan-3-yl)-1H-pyrazolo[4,3-c]pyridin-6-yl)-5-ethynyl-6-fluoronaphthalen-2-ol]	–	40500
C#Cc1c(F)ccc2cc(O)cc(-c3ncc4c(C5=CC6CCC(C5)N6)nn(CC)c4c3F)c12 (stereo not drawn) [Example 9, 4-(3-(8-azabicyclo[3.2.1]oct-2-en-3-yl)-1-ethyl-7-fluoro-1H-pyrazolo[4,3-c]pyridin-6-yl)-5-ethynyl-6-fluoronaphthalen-2-ol]	–	16200
